Target: T1, hKv3.1 (Homo sapiens, UniProt P48547)
T1 construct: expressed in transfected cells
T1 sequence (P48547 1-511): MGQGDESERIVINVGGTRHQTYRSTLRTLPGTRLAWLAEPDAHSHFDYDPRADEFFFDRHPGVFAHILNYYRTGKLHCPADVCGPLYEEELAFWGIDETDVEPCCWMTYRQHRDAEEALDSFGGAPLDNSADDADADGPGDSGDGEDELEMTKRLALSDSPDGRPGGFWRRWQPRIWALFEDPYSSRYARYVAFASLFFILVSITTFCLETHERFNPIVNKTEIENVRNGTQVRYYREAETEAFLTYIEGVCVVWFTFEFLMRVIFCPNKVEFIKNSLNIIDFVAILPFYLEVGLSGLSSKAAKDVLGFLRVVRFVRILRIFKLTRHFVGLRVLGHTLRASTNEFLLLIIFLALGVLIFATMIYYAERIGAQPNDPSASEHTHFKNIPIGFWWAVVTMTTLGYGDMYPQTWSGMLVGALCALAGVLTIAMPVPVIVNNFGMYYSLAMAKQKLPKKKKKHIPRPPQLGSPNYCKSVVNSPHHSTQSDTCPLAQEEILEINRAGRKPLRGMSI
Assay: Automated patch clamp (Patchliner) whole-cell electrophysiology, Kv3.1
Assay type: cell-based
Settings: 10 μM compound, CHO-K1 cells stably expressing hKv3.1; for Kv3.1 Activity at 10 μM Potentiation (%): % potentiation of peak current at −10 mV voltage step vs vehicle; for Kv3.1 Activity at 10 μM Voltage Shift (mV): voltage shift of the IV curve at V1/2
Procedure: hKv3.1, hKv3.2, hKv3.3, and hKv3.4 were stably expressed in CHO-K1 (Chinese hamster ovary) cells and kept under constant antibiotic selection. For in vitro assays, cells were maintained in appropriate growth medium at 37° C. and 5% CO2 in a humidified incubator.
hKv3.X expressing cells were plated in T-25 flasks for 3-4 days at 37° C. (no selection antibiotic) prior to use and grown to 80% confluence. Cells were washed twice with PBS (calcium and magnesium free) and detached with a 5-minute treatment at 37° C. with 2-3 mls of Accutase®. Cells were collected, and flask was washed in CHO-SFM II media (Life Technologies Gibco), centrifuged for 2 minutes at ˜110×g and resuspended to obtain a single cell suspension of ˜2-3×10^6 cells/ml.
The intracellular solution contained the following (in mM): KCl 50, NaCl 10, KF 60, EGTA 20, HEPES 10, adjusted to pH 7.2 with KOH and an osmolarity of 285 mOsmol. Seal enhancer was purchased from Nanion (80 mM NaCl, 3 mM KCl, 10 mM MgCl2, 35 mM CaCl2), 10 mM HEPES, pH7.4, 298 mOsmol. The external solution contained (in mM): NaCl 140, KCl 4, CaCl2) 2, MgCl2 1, HEPES 10, Glucose 5, adjusted to pH7.4 and an osmolarity of 298 mOsmol.
All compounds were initially tested at 10 uM at a final DMSO concentration of 0.33%. Compounds were dissolved in dimethylsulfoxide (DMSO) at a stock concentration of 30 mM. The compound was further diluted 1:10 to give a stock concentration of 3 mM in DMSO. The final assay solution was diluted 1:300 in External solution to give a final concentration of 10 uM. For the DMSO Control Buffer 30 uL of DMSO was added to 10 mL buffer.
All electrophysiological recordings were performed at ambient temperature (21-23° C.) using automated patch clamp (Patchliner, Nanion Technologies GmbH) in the whole-cell configuration.
Cell membrane potentials were held at −80 mV, and currents were evoked by voltage steps (1000 ms duration) from −60 to +60 mV in 10 mV increments. This was performed first with vehicle (0.33% DMSO) and then with 10 uM compound, after a 3-minute incubation period. Data was taken from 4 cells per assay.
The recordings were analysed and selected using peak current amplitude (>100 pA at the −10 mV voltage step) in the absence of compound to eliminate unsuitable cells from analysis. Peak current amplitude was measured and recorded for each voltage step and data was normalised to the maximum current at +60 mV. The normalised Kv3.x currents following addition of the compound were then compared with the currents recorded prior to compound addition (vehicle control). Positive modulation was determined as % potentiation at the voltage step of −10 mV=[current (cmpd)/current (veh)]*100−100. % potentiation ≥50% was considered acceptable. In addition, voltage shift of the IV curve at V1/2 was measured. V1/2 of ≥−5 mV was also considered acceptable. IV curves were plotted in GraphPad Prism (software version 6.0) and fitted with a Boltzmann equation, where V1/2 is the voltage at half-maximal activation.

SMILES | Kv3.1 Activity at 10 μM Potentiation (%) | Kv3.1 Activity at 10 μM Voltage Shift (mV)
CC[C@H]1NC(=O)N(c2cccc(Oc3cc(OC)ccc3C)n2)C1=O [Example 52, (5R)-5-ethyl-3-[6-(5-methoxy-2-methyl-phenoxy)-2-pyridyl]imidazolidine-2,4-dione] | 14 | −3.5
CC[C@H]1NC(=O)N(c2cccc(Oc3ccc(C#N)cc3C(C)(C)C)n2)C1=O [Example 57, 3-tert-butyl-4-[[6-[(4R)-4-ethyl-2,5-dioxo-imidazolidin-1-yl]-2-pyridyl]oxy]benzonitrile] | −23 | 2.18
CC[C@H]1NC(=O)N(c2cccc(Oc3cccc(C)c3OC)n2)C1=O [Example 56, (5R)-5-ethyl-3-[6-(2-methoxy-3-methyl-phenoxy)-2-pyridyl]imidazolidine-2,4-dione] | 19 | −2.7
CC[C@H]1NC(=O)N(c2cccc(Oc3cc(C)cc(OC)c3)n2)C1=O [Example 54, (5R)-5-ethyl-3-[6-(5-methoxy-3-methyl-phenoxy)-2-pyridyl]imidazolidine-2,4-dione] | 11 | −1.69
CC[C@@]1(C)NC(=O)N(c2cccc(Oc3cccc4c3CCC4)n2)C1=O [Example 69, (5R)-5-ethyl-3-(6-indan-4-yloxy-2-pyridyl)-5-methyl-imidazolidine-2,4-dione] | 73 | −3
CC[C@@]1(C)NC(=O)N(c2cccc(Oc3ccc(F)c(C)c3)n2)C1=O [Example 60, (5R)-5-ethyl-3-[6-(4-fluoro-3-methyl-phenoxy)-2-pyridyl]-5-methyl-imidazolidine-2,4-dione] | 51 | −3.45
CC[C@@]1(C)NC(=O)N(c2cccc(Oc3ccc(Cl)c(OC)c3)n2)C1=O [Example 62, (5R)-3-[6-(4-chloro-3-methoxy-phenoxy)-2-pyridyl]-5-ethyl-5-methyl-imidazolidine-2,4-dione] | 57 | −4.05
CC[C@@]1(C)NC(=O)N(c2ccnc(Oc3ccc(C)c(F)c3)c2)C1=O [Example 12, (5R)-5-ethyl-3-[2-(3-fluoro-4-methyl-phenoxy)-4-pyridyl]-5-methyl-imidazolidine-2,4-dione] | 6 | −3.31
CC[C@@]1(C)NC(=O)N(c2cncc(Oc3ccc(C)c(OC)c3)c2)C1=O [Example 40, (5R)-5-ethyl-3-[5-(3-methoxy-4-methyl-phenoxy)-3-pyridyl]-5-methyl-imidazolidine-2,4-dione] | 78 | −4.77
CC[C@H]1NC(=O)N(c2cccc(Oc3ccc(OC)c(C)c3)n2)C1=O [Example 51, (5R)-5-ethyl-3-[6-(4-methoxy-3-methyl-phenoxy)-2-pyridyl]imidazolidine-2,4-dione] | 7 | −1.99
CC(C)c1cc(Oc2ccnc(N3C(=O)NC(C)(C)C3=O)c2)ccc1C#N [Example 47, 4-[[2-(4,4-dimethyl-2,5-dioxo-imidazolidin-1-yl)-4-pyridyl]oxy]-2-isopropyl-benzonitrile] | 29 | −1.49
CC[C@@]1(C)NC(=O)N(c2cccc(Oc3ccc4c(c3)OCCC4)n2)C1=O [Example 64, (5R)-3-(6-chroman-7-yloxy-2-pyridyl)-5-ethyl-5-methyl-imidazolidine-2,4-dione] | 15 | −2.57
CC[C@@]1(C)NC(=O)N(c2cccc(Oc3ccc(F)c(OC)c3)n2)C1=O [Example 59, (5R)-5-ethyl-3-[6-(4-fluoro-3-methoxy-phenoxy)-2-pyridyl]-5-methyl-imidazolidine-2,4-dione] | 10 | −1.95
CC[C@H]1NC(=O)N(c2ccnc(Oc3ccc(C)c(OC)c3)c2)C1=O [Example 23, (5R)-5-ethyl-3-[2-(3-methoxy-4-methyl-phenoxy)-4-pyridyl]imidazolidine-2,4-dione] | 30 | 0.77
CC[C@]1(C)NC(=O)N(c2cccc(Oc3ccc(C)c(OC)c3)n2)C1=O [Example 72, (5S)-5-ethyl-3-[6-(3-methoxy-4-methyl-phenoxy)-2-pyridyl]-5-methyl-imidazolidine-2,4-dione] | 33 | −4.25
COc1cc(Oc2cc(N3C(=O)NC4(CCOCC4)C3=O)ccn2)ccc1C [Example 32, 3-[2-(3-methoxy-4-methyl-phenoxy)-4-pyridyl]-8-oxa-1,3-diazaspiro[4.5]decane-2,4-dione] | 19 | −2.06
CC[C@@]1(C)NC(=O)N(c2ccnc(Oc3ccc(C)c(C)c3)c2)C1=O [Example 17, (5R)-3-[2-(3,4-dimethylphenoxy)-4-pyridyl]-5-ethyl-5-methyl-imidazolidine-2,4-dione] | 28 | −3.12
CC[C@H]1NC(=O)N(c2cncc(Oc3ccc(C)c(OC)c3)c2)C1=O [Example 38, (5R)-5-ethyl-3-[5-(3-methoxy-4-methyl-phenoxy)-3-pyridyl]imidazolidine-2,4-dione] | 48 | −2.8
Cc1ccc(Oc2cc(N3C(=O)NC4(CCCCC4)C3=O)ccn2)cc1OC(F)(F)F [Example 29, 3-[2-[4-methyl-3-(trifluoromethoxy)phenoxy]-4-pyridyl]-1,3-diazaspiro[4.5]decane-2,4-dione] | 12 | −0.63
CC[C@@]1(C)NC(=O)N(c2ccnc(Oc3ccc4c(c3)OCCC4)c2)C1=O [Example 19, (5R)-3-(2-chroman-7-yloxy-4-pyridyl)-5-ethyl-5-methyl-imidazolidine-2,4-dione] | 35 | −0.4
CC[C@@]1(C)NC(=O)N(c2cccc(Oc3ccc(C)c(C)c3)n2)C1=O [Example 65, (5R)-3-[6-(3,4-dimethylphenoxy)-2-pyridyl]-5-ethyl-5-methyl-imidazolidine-2,4-dione] | 22 | −3.79
CC[C@H]1NC(=O)N(c2cc(Oc3ccc4ccccc4c3)ccn2)C1=O [Example 42, (5R)-5-ethyl-3-[4-(2-naphthyloxy)-2-pyridyl]imidazolidine-2,4-dione] | 25 | −3.07
CC[C@H]1NC(=O)N(c2cccc(Oc3cccc(OC)c3)n2)C1=O [Example 55, (5R)-5-ethyl-3-[6-(3-methoxy-phenoxy)-2-pyridyl]imidazolidine-2,4-dione] | 11 | −1.41

— US12090146B2, “Substituted-pyridinyl compounds and uses thereof” (Bionomics Limited, priority 2018, dated 2024)
